In the series the test system is CCRIS mutagenicity, Ames/micronucleus/aberration tests. As to the kind of experiment: CCRIS mutagenicity studies.
Where [1] appears, read: Test System: AMES SALMONELLA TYPHIMURIUM, Strain/Indicator: TA100, Metabolic Activation: NONE, Method: PREINCUBATION
Setting [2] is: Test System: AMES SALMONELLA TYPHIMURIUM, Strain/Indicator: TA98, Metabolic Activation: NONE, Method: STANDARD PLATE.
Setting [3] is: Test System: AMES SALMONELLA TYPHIMURIUM, Strain/Indicator: TA98, Metabolic Activation: RAT, LIVER, S-9, AROCLOR 1254, Method: STANDARD PLATE.
The mark [4] stands for this setting: Test System: AMES SALMONELLA TYPHIMURIUM, Strain/Indicator: TA100, Metabolic Activation: NONE, Method: STANDARD PLATE.
Where [5] appears, read: Test System: AMES SALMONELLA TYPHIMURIUM, Strain/Indicator: TA100, Metabolic Activation: RAT, LIVER, S-9, AROCLOR 1254, Method: STANDARD PLATE.

Activity calls are given as the source filed them. No rule for the calls is given here.

For the compound `CC1CN(N=O)CC(C)O1` (stereo unspecified), the mutagenic call is “active; positive” (Test System: AMES SALMONELLA TYPHIMURIUM, Strain/Indicator: TA100, Metabolic Activation: HAMSTER, LIVER, S-9, 3-METHYLCHOLANTHRENE, Method: PREINCUBATION); “active; positive” (Test System: AMES SALMONELLA TYPHIMURIUM, Strain/Indicator: TA100, Metabolic Activation: HAMSTER, LIVER, S-9, PHENOBARBITAL, Method: PREINCUBATION); “active; positive” (Test System: AMES SALMONELLA TYPHIMURIUM, Strain/Indicator: TA100, Metabolic Activation: HAMSTER, LIVER, S-9, Method: PREINCUBATION); “inactive; negative” (Test System: AMES SALMONELLA TYPHIMURIUM, Strain/Indicator: TA100, Metabolic Activation: HUMAN, LIVER, S-9, Method: PREINCUBATION); “active; positive” (Test System: AMES SALMONELLA TYPHIMURIUM, Strain/Indicator: TA100, Metabolic Activation: MONKEY, LIVER, S-9, Method: PREINCUBATION); “active; positive” (Test System: AMES SALMONELLA TYPHIMURIUM, Strain/Indicator: TA100, Metabolic Activation: MOUSE, LIVER, S-9, 3-METHYLCHOLANTHRENE, Method: PREINCUBATION). Moreover, the mutagenic call by setting is: (Test System: AMES SALMONELLA TYPHIMURIUM, Strain/Indicator: TA100, Metabolic Activation: MOUSE, LIVER, S-9, PHENOBARBITAL, Method: PREINCUBATION) “active; positive”; (Test System: AMES SALMONELLA TYPHIMURIUM, Strain/Indicator: TA100, Metabolic Activation: MOUSE, LIVER, S-9, Method: PREINCUBATION) “active; positive”; under setting [1], “inactive; negative”; (Test System: AMES SALMONELLA TYPHIMURIUM, Strain/Indicator: TA100, Metabolic Activation: RABBIT, LIVER, S-9, Method: PREINCUBATION) “active; positive”; (Test System: AMES SALMONELLA TYPHIMURIUM, Strain/Indicator: TA100, Metabolic Activation: RAT, LIVER, CYTOSOL, PCB, Method: PREINCUBATION) “inactive; negative”; (Test System: AMES SALMONELLA TYPHIMURIUM, Strain/Indicator: TA100, Metabolic Activation: RAT, LIVER, MICROSOMES AND CYTOSOL, PCB, Method: PREINCUBATION) “active; positive”. Also, the mutagenic call runs as follows: (Test System: AMES SALMONELLA TYPHIMURIUM, Strain/Indicator: TA100, Metabolic Activation: RAT, LIVER, MICROSOMES AND G6PDH, PCB, Method: PREINCUBATION) “active; positive”; (Test System: AMES SALMONELLA TYPHIMURIUM, Strain/Indicator: TA100, Metabolic Activation: RAT, LIVER, MICROSOMES, PCB, Method: PREINCUBATION) “active; positive”; (Test System: AMES SALMONELLA TYPHIMURIUM, Strain/Indicator: TA100, Metabolic Activation: RAT, LIVER, S-9 (HEATED), PCB, Method: PREINCUBATION) “inactive; negative”; (Test System: AMES SALMONELLA TYPHIMURIUM, Strain/Indicator: TA100, Metabolic Activation: RAT, LIVER, S-9, 3-METHYLCHOLANTHRENE, Method: PREINCUBATION) “active; positive”; (Test System: AMES SALMONELLA TYPHIMURIUM, Strain/Indicator: TA100, Metabolic Activation: RAT, LIVER, S-9, PCB, Method: PREINCUBATION) “active; positive”; (Test System: AMES SALMONELLA TYPHIMURIUM, Strain/Indicator: TA100, Metabolic Activation: RAT, LIVER, S-9, PHENOBARBITAL, Method: PREINCUBATION) “active; positive”. The mutagenic call by setting is: (Test System: AMES SALMONELLA TYPHIMURIUM, Strain/Indicator: TA100, Metabolic Activation: RAT, LIVER, S-9, Method: PREINCUBATION) “active; positive”; (Test System: AMES SALMONELLA TYPHIMURIUM, Strain/Indicator: TA100, Metabolic Activation: RAT, LIVER, S-9 WITHOUT NADP+, PCB, Method: PREINCUBATION) “inactive; negative”; (Test System: AMES SALMONELLA TYPHIMURIUM, Strain/Indicator: TA100, Method: PREINCUBATION) “active; positive”.
As for `CCCC(=O)c1cc(O)c(O)cc1O`, the mutagenic call reads like this: (Test System: AMES SALMONELLA TYPHIMURIUM, Strain/Indicator: TA98, Metabolic Activation: HAMSTER, LIVER, S-9, AROCLOR 1254 (10%), Method: PREINCUBATION) “active; positive”; (Test System: AMES SALMONELLA TYPHIMURIUM, Strain/Indicator: TA98, Metabolic Activation: NONE, Method: PREINCUBATION) “inactive; negative”; (Test System: AMES SALMONELLA TYPHIMURIUM, Strain/Indicator: TA98, Metabolic Activation: RAT, LIVER, S-9, AROCLOR 1254 (10%), Method: PREINCUBATION) “inactive; negative”; (Test System: AMES SALMONELLA TYPHIMURIUM, Strain/Indicator: TA100, Metabolic Activation: HAMSTER, LIVER, S-9, AROCLOR 1254 (10%), Method: PREINCUBATION) “inactive; negative”; under setting [1], “inactive; negative”; (Test System: AMES SALMONELLA TYPHIMURIUM, Strain/Indicator: TA100, Metabolic Activation: RAT, LIVER, S-9, AROCLOR 1254 (10%), Method: PREINCUBATION) “active; positive”. Besides, the mutagenic call is “inactive; negative” (Test System: AMES SALMONELLA TYPHIMURIUM, Strain/Indicator: TA1535, Metabolic Activation: HAMSTER, LIVER, S-9, AROCLOR 1254 (10%), Method: PREINCUBATION); “inactive; negative” (Test System: AMES SALMONELLA TYPHIMURIUM, Strain/Indicator: TA1535, Metabolic Activation: NONE, Method: PREINCUBATION); “inactive; negative” (Test System: AMES SALMONELLA TYPHIMURIUM, Strain/Indicator: TA1535, Metabolic Activation: RAT, LIVER, S-9, AROCLOR 1254 (10%), Method: PREINCUBATION); “inactive; negative” (Test System: AMES SALMONELLA TYPHIMURIUM, Strain/Indicator: TA1537, Metabolic Activation: HAMSTER, LIVER, S-9, AROCLOR 1254 (10%), Method: PREINCUBATION); “inactive; negative” (Test System: AMES SALMONELLA TYPHIMURIUM, Strain/Indicator: TA1537, Metabolic Activation: NONE, Method: PREINCUBATION); “active; positive” (Test System: AMES SALMONELLA TYPHIMURIUM, Strain/Indicator: TA1537, Metabolic Activation: RAT, LIVER, S-9, AROCLOR 1254 (10%), Method: PREINCUBATION).
As for `CCOC(=O)c1[nH]c2ccccc2c1N=Cc1ccc(NC(C)=O)cc1`, the mutagenic call runs as follows: (Test System: AMES SALMONELLA TYPHIMURIUM, Strain/Indicator: TA97, Metabolic Activation: NONE, Method: STANDARD PLATE) “active; positive”; (Test System: AMES SALMONELLA TYPHIMURIUM, Strain/Indicator: TA97, Metabolic Activation: RAT, LIVER, S-9, AROCLOR 1254, Method: STANDARD PLATE) “inactive; negative”; under setting [2], “inactive; negative”; under setting [3], “inactive; negative”; under setting [4], “inactive; negative”; under setting [5], “inactive; negative”. Moreover, the mutagenic call by setting is: (Test System: AMES SALMONELLA TYPHIMURIUM, Strain/Indicator: TA102, Metabolic Activation: NONE, Method: STANDARD PLATE) “inactive; negative”; (Test System: AMES SALMONELLA TYPHIMURIUM, Strain/Indicator: TA102, Metabolic Activation: RAT, LIVER, S-9, AROCLOR 1254, Method: STANDARD PLATE) “inactive; negative”.
With `CNCCCN1c2ccccc2CCc2ccccc21`, the mutagenic call under setting [2] is “inactive; negative”; the mutagenic call under setting [3] is “inactive; negative”; the mutagenic call under setting [4] is “inactive; negative”; the mutagenic call under setting [5] is “inactive; negative”; the mutagenic call (Test System: AMES SALMONELLA TYPHIMURIUM, Strain/Indicator: TA1535, Metabolic Activation: NONE, Method: STANDARD PLATE) was “inactive; negative”; the mutagenic call (Test System: AMES SALMONELLA TYPHIMURIUM, Strain/Indicator: TA1535, Metabolic Activation: RAT, LIVER, S-9, AROCLOR 1254, Method: STANDARD PLATE) was “inactive; negative”. For the same compound, the mutagenic call (Test System: AMES SALMONELLA TYPHIMURIUM, Strain/Indicator: TA1537, Metabolic Activation: NONE, Method: STANDARD PLATE) is “inactive; negative” and the mutagenic call (Test System: AMES SALMONELLA TYPHIMURIUM, Strain/Indicator: TA1537, Metabolic Activation: RAT, LIVER, S-9, AROCLOR 1254, Method: STANDARD PLATE) is “inactive; negative”.
With `[O-][n+]1c2ccc3ccccc3c2cc2c3ccccc3ccc21`, the mutagenic call is “inactive; negative” (Test System: AMES SALMONELLA TYPHIMURIUM, Strain/Indicator: TA100, Metabolic Activation: GUINEA PIG, LIVER, S-9, 3-METHYLCHOLANTHRENE, Method: STANDARD PLATE) and “active; positive” (Test System: CHINESE HAMSTER V-79, Strain/Indicator: V-79/6-THIOGUANINE, Metabolic Activation: GUINEA PIG, LIVER, S-9, 3-METHYLCHOLANTHRENE).
